Experimental data from patent publication US20090227562A1, “Combination of a Selective Noradrenaline Reuptake Unhibitor and a PDEV Inhibitor” (Pfizer Inc., priority 2004, published 2009).

How the values were obtained:
[1] = test system: static allodynia in the CCI rat model; experiment: Static allodynia (von Frey hairs) in the chronic constriction injury (CCI) rat model of neuropathic pain; type: in vivo; settings: CCI rats; for paw withdrawal threshold (PWT), reversal compared to the vehicle treated group: single administration, peak effect 1 h post administration, median [LQ;UQ], 6 rats per group, CCI baseline 2 g; for anti-allodynic effect following single administration: static allodynia, (S,S)-reboxetine 1-3-10-30 mg/kg IP, Compound A 3-10-30 mg/kg SC
Protocol: Male Sprague Dawley rats (175-200 g at time of surgery), obtained from Charles River, Margate, U.K.) were housed in groups of 3-6. All animals were kept under a 12 h light/dark cycle (lights on at 07 h 00 min) with food and water ad libitum. All experiments were carried out by an observer blind to drug treatments. Animals were placed in an anaesthetic chamber and anaesthetised with a 2% isofluorane O2 mixture. The right hind thigh is shaved and swabbed with 1% iodine. Animals were then transferred to a homeothermic blanket for the duration of the procedure and anaesthesia maintained during surgery via a nose cone. The skin was cut along the line of the thigh bone. The common sciatic nerve was exposed at the middle of the thigh by blunt dissection through biceps femoris. Proximal to the sciatic trifurcation, about 7 mm of nerve was freed by inserting forceps under the nerve and the nerve gently lifted out of the thigh. The forceps were gently opened and closed several times to aid clearance of the fascia from the nerve. Suture was pulled under the nerve using forceps and tied in a simple knot until slight resistance was felt and then double knotted. The procedure was repeated until 4 ligatures (4-0 silk) were tied loosely around the nerve with approx 1 mm spacing. The incision was closed in layers and the wound treated with topical antibiotics. Animals were habituated to test cages prior to the assessment of allodynia. Static allodynia was evaluated by application of von Frey hairs (Stoelting, Wood Dale, Ill., USA) in ascending order of force (0.7, 1.2, 1.4, 2, 4, 6, 8, 10, 15 and 26 grams) to the plantar surface of hind paws. […] Once a withdrawal response to a von Frey hair was established, the paw was re-tested, starting with the filament below the one that produced a withdrawal, and subsequently with the remaining filaments in descending force sequence until no withdrawal occurred. The highest force of 26 g lifted the paw as well as eliciting a response, thus represented the cut off point. Each animal had both hind paws tested in this manner. The lowest amount of force required to elicit a response was recorded as paw withdrawal threshold (PWT) in grams. Static allodynia was defined as present if animals responded to a stimulus of, or less than, 4 g, which is innocuous in normal rats. […] Static allodynia was graphically represented as median [LQ;UQ] in a logarithmic scale and data analysed by Kruskall-Wallis test for non-parametric results, followed by Mann-Whitney's U test vs vehicle group for each time point, using Prism Software version 3 (GraphPad, San Diego, USA). […] Data are the peak effects (1 h post administration) for each compound and doses expressed as median [LQ; […] In this specific case it corresponds to the Compound A dose-response line.

norepinephrine reuptake = settings: as disclosed in WO-A-01/01973; cited from earlier work
serotonin reuptake = settings: cited from earlier work
dopamine reuptake = settings: cited from earlier work

CCOc1ccccc1O[C@@H](c1ccccc1)[C@@H]1CNCCO1 [(S,S)-reboxetine]
paw withdrawal threshold (PWT), reversal compared to the vehicle treated group ([1]; 30 mg/kg IP (free base)): 6 g
anti-allodynic effect following single administration [1]: dose dependent anti-allodynic effect
selectivity for the inhibition of norepinephrine reuptake over the inhibition of serotonin reuptake (norepinephrine reuptake): greatly enhanced selectivity

CCCOc1ccc(S(=O)(=O)N2CCN(CC)CC2)cc1-c1nc2c(CC)n(Cc3ccccn3)nc2c(=O)[nH]1 [Compound A, 3-ethyl-5-[5-(4-ethylpiperazin-1-ylsulphonyl)-2-n-propoxyphenyl]-2-(pyridin-2-yl)methyl-2,6-dihydro-7H-pyrazolo[4,3-d]pyrimidin-7-one]
paw withdrawal threshold (PWT), reversal compared to the vehicle treated group ([1]; 30 mg/kg SC): 6 g
anti-allodynic effect following single administration [1]: dose dependent anti-allodynic effect

CCOc1ccccc1OC(c1ccccc1)C1CNCCO1 (racemic) [Reboxetine, (R,R/S,S)-(2-[(2-ethoxyphenoxy)(phenyl)methyl]morpholine)]
serotonin reuptake inhibition (serotonin reuptake): only marginal serotonin reuptake inhibition
dopamine reuptake inhibition (dopamine reuptake): no dopamine reuptake inhibition
